In patent US4327097A, “Novel penicillins” (Toyama Chemical Co., Ltd., priority 1974, dated 1982):
In brackets after ≈: the same amount, converted by molar mass.

What was measured:
[1] = target: T1, β-lactamase, Proteus vulgaris GN 76 (Proteus vulgaris, UniProt P52664); test: Resistant activity against β-lactamase, iodometric assay; assay type: biochemical; details: control Cephalorizine = 100
T1 construct: By using the supernatant of enzyme fluid; endogenous in cells; host or cells: Proteus vulgaris GN 76 (penicillin G-induced cells, sonicated, 15,000 r.p.m. supernatant)
Description: (§1) (4) Resistant activity of each cephalosporin compound against β-lactamase, Proteus vulgaris GN 76 and Escherichia freundii GN 346:
(§2) The resistant activity of each cephalosporin compound against β-lactamase was measured in the manner described below.
(§3) β-lactamase was prepared from Proteus vulgaris GN 76 and Escherichia freundii GN 346. 10 ml of an overnight culture in Heart Infusion broth was diluted with 100 ml of a medium containing 2 g of yeast extract, 10 g of polypeptone, 2 g of glucose, 7 g of disodium hydrogen phosphate, 2 g of potassium dihydrogen phosphate, 1.2 g of ammonium sulfate and 0.4 g of magnesium sulfate, per liter, and incubated with shaking at 37° C. After incubation of 2 hrs, Penicillin G (50 μg/ml) was added as the inducer, and further incubated for 2 hrs. The resulting cells were collected by centrifugation (5,000 r.p.m.×10 min.) and washed two times with 0.1 M phosphate buffer (pH 7.0). Subsequently, the cells were subjected to sonication (20 KHz, 5 min.) and then centrifuged at 15,000 r.p.m. for 60 min. By using the supernatant of enzyme fluid, the stability of each compound against β-lactamase was determined by the iodometric assay method. Each numeral shown in Table 7-2 is a relative activity value calculated by assuming as 100 the activity of the control Cephalorizine.

[2] = target: β-lactamase, Escherichia freundii GN 346 (Citrobacter freundii, UniProt Q46041); test: as above; assay type: biochemical; details: control Cephalorizine = 100
Description: as §1, §2, §3

[3] = tested on: Pseudomonas aeruginosa; test: MIC against clinical isolates; assay type: cell-based; details: unit assumed
[4] = tested on: Escherichia coli; test: MIC against clinical isolates; assay type: cell-based; details: Table 5-2, clinical isolate; unit assumed
[5] = tested on: Staphylococcus aureus 209p; test: MIC, plate method, standard strains; assay type: cell-based; details: Table 3, standard strain, Heart infusion agar pH 7.4; unit assumed
Description: (§4) The minimum inhibitory concentration (MIC) was determined by the plate method disclosed in "Chemotherapy" (Japan), Vol. 16, (1968), pages 98-99. The culture medium used was a Heart infusion agar (pH 7.4). The number of the cells per plate used in the inoculum was 10^4 (10^6 cells/ml).

[6] = tested on: Proteus vulgaris 3027; test: MIC, plate method, standard strains; assay type: cell-based; details: Table 3, standard strain; unit assumed
Description: as §4

[7] = tested on: Klebsiella pneumoniae; test: MIC, plate method, standard strains; assay type: cell-based; details: Table 3, standard strain; unit assumed
Description: as §4

[8] = tested on: Escherichia coli NIHJ; test: MIC, plate method, standard strains; assay type: cell-based; details: Table 3, standard strain; unit assumed
Description: as §4

[9] = tested on: Pseudomonas aeruginosa I.F.O.; test: MIC, plate method, standard strains; assay type: cell-based; details: Table 3, standard strain; unit assumed
Description: as §4

[10] = tested on: β-lactamase, Pseudomonas aeruginosa GN 238; test: Resistant activity against β-lactamase, iodometric assay; assay type: biochemical; details: β-lactamase from Pseudomonas aeruginosa GN 238; Potassium Penicillin G = 100
Description: (3) Resistant activity against β-lactamase, Pseudomonas aerugionsa GN 238:
The resistant activity of each compound against β-lactamase was measured in the manner described below.
β-Lactamase was prepared from Pseudomonas aeruginosa GN 238. This microorganism was cultured in 100 ml of a medium containing 2 g of yeast extract, 10 g of polypeptone, 2 g of glucose, 7 g of disodium hydrogen phosphate, 2 g of potassium dihydrogen phosphate, 1.2 g of ammonium sulfate and 0.4 g of magnesium sulfate, per liter, in a 500-ml Erlenmeyer flask for 6 hrs. at 37° C. with shaking. The resulting cells were collected by centrifugation (5,000 r.p.m.×10 min.), washed three times with 0.1 M phosphate buffer (pH 7.0). Subsequently, the cells were subjected to sonication (20 KHz, 20 min.) and then centrifuged at 15,000 r.p.m. for 60 min. By using the supernatant of enzyme fluid, the resistance of each compound against β-lactamase was determined by the iodometric assay method. Each numeral shown in Table 7 is a relative activity value calculated by assuming as 100 the activity of the control Potassium Penicillin G.

[11] = tested on: Staphylococcus aureus; test: MIC against clinical isolates; assay type: cell-based; details: Table 5-1, clinical isolate; unit assumed
[12] = tested on: Shigella sonnei; test: MIC against clinical isolates; assay type: cell-based; details: Table 5-5, clinical isolate; unit assumed
Description: as §4
(§5) MIC was determined in the same manner as in the preceding paragraph (1).

[13] = tested on: Shigella flexneri; test: MIC against clinical isolates; assay type: cell-based; details: Table 5-5, clinical isolate; unit assumed
Description: as §4, §5

[14] = tested on: Klebsiella pneumoniae; test: MIC against clinical isolates; assay type: cell-based; details: Table 5-4, clinical isolate; unit assumed

β-lactamase, Escherichia freundii GN 346, sequence (Q46041 entry or part of it): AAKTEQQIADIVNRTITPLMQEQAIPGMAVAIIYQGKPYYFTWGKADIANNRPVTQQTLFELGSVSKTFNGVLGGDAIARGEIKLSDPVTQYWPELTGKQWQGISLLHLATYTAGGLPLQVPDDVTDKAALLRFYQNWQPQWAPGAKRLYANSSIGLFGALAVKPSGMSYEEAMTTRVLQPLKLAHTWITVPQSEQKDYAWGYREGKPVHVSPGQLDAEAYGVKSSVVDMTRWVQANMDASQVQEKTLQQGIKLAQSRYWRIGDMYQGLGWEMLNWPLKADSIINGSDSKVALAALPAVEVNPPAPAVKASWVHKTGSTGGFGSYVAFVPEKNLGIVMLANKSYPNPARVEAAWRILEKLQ
T1 sequence (P52664 30-300): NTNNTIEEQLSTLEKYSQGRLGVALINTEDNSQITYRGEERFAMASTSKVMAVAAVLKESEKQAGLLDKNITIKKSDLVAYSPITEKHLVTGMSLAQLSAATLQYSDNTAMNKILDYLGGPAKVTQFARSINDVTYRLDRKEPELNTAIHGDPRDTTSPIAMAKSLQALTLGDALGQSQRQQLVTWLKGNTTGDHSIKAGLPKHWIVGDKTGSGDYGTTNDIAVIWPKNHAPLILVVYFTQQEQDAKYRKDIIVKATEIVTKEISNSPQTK

## CN1CCN(C(=O)NC(C(=O)NC2C(=O)N3C(C(=O)O)=C(CSc4nnnn4C)CSC23)c2ccccc2)C(=O)C1=O (single isomer, unassigned) [Compound No. 63]
[1]
  Relative activity (%) against β-lactamase, Pr. vulgaris GN 76: 6%
[2]
  Relative activity (%) against β-lactamase, E. freundii GN 346: 0.2%
[3]; Table 6-3, clinical isolate
  MIC Pseudomonas aeruginosa GN4: 25 µg/mL (≈ 40.6 µM)
  MIC Pseudomonas aeruginosa GN 82: 50 µg/mL (≈ 81.2 µM)
  MIC Pseudomonas aeruginosa GN 376: 50 µg/mL (≈ 81.2 µM)
  MIC Pseudomonas aeruginosa GN 2565: 50 µg/mL (≈ 81.2 µM)

## CCN1CCN(C(=O)N[C@@H](C(=O)N[C@@H]2C(=O)N3[C@@H]2SC(C)(C)[C@@H]3C(=O)O)c2ccccc2)C(=O)C1=O [Compound 36]
[4]
  MIC Escherichia coli GN 3435: 1.57 µg/mL (≈ 3.03 µM)
  MIC Escherichia coli GN 3452: 3.13 µg/mL (≈ 6.05 µM)
  MIC Escherichia coli GN 3481: 3.13 µg/mL (≈ 6.05 µM)
  MIC Escherichia coli K-1: 3.13 µg/mL (≈ 6.05 µM)
  MIC Escherichia coli K-2: 3.13 µg/mL (≈ 6.05 µM)
  MIC Escherichia coli K-4: 1.57 µg/mL (≈ 3.03 µM)
[5]
  MIC Staphylococcus aureus 209p: < 1.57 µg/mL
[6]
  MIC Proteus vulgaris 3027: < 1.57 µg/mL
[7]
  MIC Klebsiella pneumoniae: < 1.57 µg/mL
[8]
  MIC Esche--richin coil NIHJ: < 1.57 µg/mL
[9]
  MIC Pseudomonas aeruginosa I.F.C: 6.25 µg/mL (≈ 12.1 µM)
[10]
  Relative activity (%), resistant activity against β-lactamase: 14%
[11]
  MIC Staphylococcus aureus F-2: 3.13 µg/mL (≈ 6.05 µM)
  MIC Staphylococcus aureus F-3: 1.57 µg/mL (≈ 3.03 µM)
  MIC Staphylococcus aureus F-4: 6.25 µg/mL (≈ 12.1 µM)
  MIC Staphylococcus aureus MS 8588: 3.13 µg/mL (≈ 6.05 µM)
  MIC Staphylococcus aureus MS 8596: 3.13 µg/mL (≈ 6.05 µM)
  MIC Staphylococcus aureus MS 8684: 3.13 µg/mL (≈ 6.05 µM)
  MIC Staphylococcus aureus MS 8713: 6.25 µg/mL (≈ 12.1 µM)
[12]
  MIC Shigella sonnei JS 11232: 50 µg/mL (≈ 96.6 µM)
  MIC Shigella sonnei JS 11755: 3.13 µg/mL (≈ 6.05 µM)
[13]
  MIC Shigella flexneri JS 11215: 100 µg/mL (≈ 193 µM)
  MIC Shigella flexneri JS 11839: 3.13 µg/mL (≈ 6.05 µM)
[14]
  MIC Klebsiella pneumoniae GN 917: 6.25 µg/mL (≈ 12.1 µM)
[3]; Table 5-3, clinical isolate
  MIC Pseudomonas aeruginosa GN 82: 6.25 µg/mL (≈ 12.1 µM)
  MIC Pseudomonas aeruginosa GN 163: 6.25 µg/mL (≈ 12.1 µM)
  MIC Pseudomonas aeruginosa GN 221: 3.13 µg/mL (≈ 6.05 µM)
  MIC Pseudomonas aeruginosa GN 376: 6.25 µg/mL (≈ 12.1 µM)
  MIC Pseudomonas aeruginosa GN 383: 6.25 µg/mL (≈ 12.1 µM)
  MIC Pseudomonas aeruginosa GN 1091: 6.25 µg/mL (≈ 12.1 µM)

## O=C(Cc1cccs1)N[C@@H]1C(=O)N2C(C(=O)[O-])=C(C[n+]3ccccc3)CS[C@H]12 [Cephalorizine, reference compound]
[1]
  Relative activity (%) against β-lactamase, Pr. vulgaris GN 76: 100%
[2]
  Relative activity (%) against β-lactamase, E. freundii GN 346: 100%
[3]; Table 6-3, clinical isolate
  MIC Pseudomonas aeruginosa GN4: > 200 µg/mL
  MIC Pseudomonas aeruginosa GN 82: > 200 µg/mL
  MIC Pseudomonas aeruginosa GN 163: > 200 µg/mL
  MIC Pseudomonas aeruginosa GN 221: > 200 µg/mL
  MIC Pseudomonas aeruginosa GN 376: > 200 µg/mL
  MIC Pseudomonas aeruginosa GN 1035: > 200 µg/mL
  MIC Pseudomonas aeruginosa GN 1091: > 200 µg/mL
  MIC Pseudomonas aeruginosa GN 2565: > 200 µg/mL
  MIC Pseudomonas aeruginosa GN 2987: > 200 µg/mL
[3]; Table 6-4, clinical isolate
  MIC Pseudomonas aeruginosa S-2: > 200 µg/mL
  MIC Pseudomonas aeruginosa S-3: > 200 µg/mL
  MIC Pseudomonas aeruginosa S-4: > 200 µg/mL

## CC1(C)S[C@@H]2[C@H](NC(=O)C(C(=O)O)c3ccccc3)C(=O)N2[C@H]1C(=O)O (some centres unmarked) [Sodium Carbenicillin, reference compound]
[4]
  MIC Escherichia coli GN 3435: 6.25 µg/mL
  MIC Escherichia coli GN 3452: 12.5 µg/mL
  MIC Escherichia coli GN 3481: 6.25 µg/mL
  MIC Escherichia coli K-1: 6.25 µg/mL
  MIC Escherichia coli K-2: 6.25 µg/mL
  MIC Escherichia coli K-4: 12.5 µg/mL
[10]
  Relative activity (%), resistant activity against β-lactamase: 116%
[11]
  MIC Staphylococcus aureus F-1: 6.25 µg/mL
  MIC Staphylococcus aureus F-2: 3.13 µg/mL
  MIC Staphylococcus aureus F-3: 3.13 µg/mL
  MIC Staphylococcus aureus F-4: 12.5 µg/mL
  MIC Staphylococcus aureus MS 8588: 6.25 µg/mL
  MIC Staphylococcus aureus MS 8596: 6.25 µg/mL
  MIC Staphylococcus aureus MS 8684: 6.25 µg/mL
  MIC Staphylococcus aureus MS 8713: 6.25 µg/mL
[12]
  MIC Shigella sonnei JS 11232: > 200 µg/mL
  MIC Shigella sonnei JS 11755: 12.5 µg/mL
[13]
  MIC Shigella flexneri JS 11215: > 200 µg/mL
  MIC Shigella flexneri JS 11839: 12.5 µg/mL
[3]; Table 5-3, clinical isolate
  MIC Pseudomonas aeruginosa GN 383: 50 µg/mL

## CCN1CCN(C(=O)NC(C(=O)NC2C(=O)N3C(C(=O)O)=C(CSc4nnnn4C)CSC23)c2ccccc2)C(=O)C1=O (centres unmarked) [Compound No. 69]
[1]
  Relative activity (%) against β-lactamase, Pr. vulgaris GN 76: 4%
[2]
  Relative activity (%) against β-lactamase, E. freundii GN 346: 0.1%
[3]; Table 6-3, clinical isolate
  MIC Pseudomonas aeruginosa GN4: 25 µg/mL (≈ 39.7 µM)

## CC1(C)S[C@@H]2[C@H](NC(=O)C(c3ccccc3)S(=O)(=O)O)C(=O)N2[C@H]1C(=O)O (some centres unmarked) [Sodium Sulbenicillin, reference compound]
[4]
  MIC Escherichia coli GN 3435: 6.25 µg/mL
  MIC Escherichia coli GN 3452: 12.5 µg/mL
  MIC Escherichia coli GN 3481: 12.5 µg/mL
  MIC Escherichia coli K-1: 6.25 µg/mL
  MIC Escherichia coli K-2: 12.5 µg/mL
  MIC Escherichia coli K-4: 6.25 µg/mL
[10]
  Relative activity (%), resistant activity against β-lactamase: 50%
[11]
  MIC Staphylococcus aureus F-1: 6.25 µg/mL
  MIC Staphylococcus aureus F-3: 6.25 µg/mL
  MIC Staphylococcus aureus F-4: 6.25 µg/mL
[12]
  MIC Shigella sonnei JS 11232: > 200 µg/mL
  MIC Shigella sonnei JS 11755: > 200 µg/mL
[13]
  MIC Shigella flexneri JS 11215: > 200 µg/mL
  MIC Shigella flexneri JS 11839: 12.5 µg/mL

## CCCCCCCCN1CCN(C(=O)N[C@@H](C(=O)N[C@@H]2C(=O)N3[C@@H]2SC(C)(C)[C@@H]3C(=O)O)c2ccccc2)CC1=O [Compound 30]
[10]
  Relative activity (%), resistant activity against β-lactamase: 3%

## CC(=O)OCC1=C(C(=O)O)N2C(=O)[C@@H](NC(=O)[C@H](N)c3ccccc3)[C@H]2SC1 [Sodium Cephaloglycin, reference compound]
[1]
  Relative activity (%) against β-lactamase, Pr. vulgaris GN 76: 1300%
[2]
  Relative activity (%) against β-lactamase, E. freundii GN 346: 0.3%
[3]; Table 6-3, clinical isolate
  MIC Pseudomonas aeruginosa GN4: > 200 µg/mL
[3]; Table 6-4, clinical isolate
  MIC Pseudomonas aeruginosa S-4: > 200 µg/mL

## CC1(C)S[C@@H]2[C@H](NC(=O)Cc3ccccc3)C(=O)N2[C@H]1C(=O)O [Potassium Penicillin G, reference compound]
[10]
  Relative activity (%), resistant activity against β-lactamase: 100%

## CC1=C(C(=O)O)N2C(=O)[C@@H](NC(=O)[C@H](N)c3ccccc3)[C@H]2SC1 [Sodium Cephalexin, reference compound]
[1]
  Relative activity (%) against β-lactamase, Pr. vulgaris GN 76: 150%
[2]
  Relative activity (%) against β-lactamase, E. freundii GN 346: 29%
